ChEMBL document CHEMBL1201862, “PubChem BioAssay data set” (2004)
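Five compound concentrations were applied to cells in 96-well plates for 48 hours; endpoints were derived by simple linear interpolation of the resulting dose-response curve. GI50 = concentration required for 50% inhibition of growth.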 The source made the active and inactive calls. Rule as the data show it: active = GI50 up to about 1.1 µM and inactive = higher.

Experiments:
Test in all cases: NCI-60 cell line screen, 48 h
[1] = test system: A549
[2] = test system: CCRF-CEM
[3] = test system: HCC 2998
[4] = test system: HL-60
[5] = test system: HOP-62
[6] = test system: HOP-92
[7] = test system: HT-29
[8] = test system: M14
[9] = test system: Malme-3M
[10] = test system: NCI-H23
[11] = test system: OVCAR-3
[12] = test system: OVCAR-5
[13] = test system: OVCAR-8
[14] = test system: RPMI-8226
[15] = test system: SF-539
[16] = test system: SK-MEL-2
[17] = test system: U-251
[18] = test system: UACC-62
[19] = test system: UO-31
[20] = test system: SNB-19

Measured: GI50

CN1c2ccccc2C(=O)NC12CCN(CCCC(=O)c1ccc(F)cc1)CC2
inactive: [1] > 100 µM | [2] 84.7 µM | [3] 19.7 µM | [4] 30.7 µM | [5] > 100 µM | [6] 62.1 µM | [7] 23.1 µM | [8] 15.5 µM | [9] 27.7 µM | [10] > 100 µM | [11] 48.9 µM | [12] > 100 µM | [13] > 100 µM | [14] 33.1 µM | [15] 50.6 µM | [16] > 100 µM | [17] > 100 µM | [18] > 100 µM | [19] 80.4 µM

COC(=O)CCC(C)C1CCC2C3CCC4CC5CCC4(C)C3(O5)C(Br)C(Br)C12C (centres undefined)
inactive: [1] > 100 µM | [3] > 100 µM | [4] 2.55 µM | [5] > 100 µM | [6] > 100 µM | [7] 56.2 µM | [8] > 100 µM | [9] > 100 µM | [10] > 100 µM | [11] > 100 µM | [12] > 100 µM | [13] > 100 µM | [14] 67.6 µM | [15] 85.1 µM | [16] > 100 µM | [20] > 100 µM | [17] > 100 µM | [18] > 100 µM | [19] > 100 µM

C1CC2=C(C1)[Se]C(=C1Sc3nsnc3S1)[Se]2
inactive: [1] > 100 µM | [2] > 100 µM | [3] > 100 µM | [5] > 100 µM | [6] > 100 µM | [7] > 100 µM | [8] > 100 µM | [9] 71.3 µM | [10] > 100 µM | [11] > 100 µM | [12] > 100 µM | [13] > 100 µM | [14] > 100 µM | [15] > 100 µM | [16] > 100 µM | [20] > 100 µM | [17] > 100 µM | [18] > 100 µM | [19] > 100 µM

COc1ccc(OC)c(SC(CC(=O)c2ccccc2)c2ccccc2)c1 (centres undefined)
inactive: [1] 27.9 µM | [2] 5.08 µM | [3] 17.5 µM | [4] > 100 µM | [5] 20.9 µM | [6] 33.7 µM | [7] 8.24 µM | [8] 16.7 µM | [9] 19.8 µM | [10] 18.6 µM | [11] 4.69 µM | [12] 18.4 µM | [13] 11.3 µM | [15] 4.32 µM | [16] 20.1 µM | [20] 14.2 µM | [17] 10.2 µM | [18] 15.6 µM | [19] 12.1 µM

COc1cc(/C=C2\N=C(c3ccccc3)N(c3ccc(C(=O)c4ccccc4)cc3N3C(=O)/C(=C/c4cc(OC)c(OC)c(OC)c4)N=C3c3ccccc3)C2=O)cc(OC)c1OC
inactive: [1] 13.7 µM | [2] 5.31 µM | [3] 2.94 µM | [4] 4.05 µM | [5] 20.7 µM | [6] 47.2 µM | [7] 29.1 µM | [8] 12.1 µM | [9] 13.8 µM | [10] 17.1 µM | [11] 2.08 µM | [12] 30.8 µM | [13] 19.9 µM | [14] 9.73 µM | [16] 9.77 µM | [20] 25.6 µM | [17] 18.7 µM | [18] 9.48 µM | [19] 16 µM

COC(=O)[C@@H]1C=C[C@H](NC(C)=O)C1
inactive: [2] > 100 µM | [3] > 100 µM | [5] > 100 µM | [6] > 100 µM | [7] > 100 µM | [8] > 100 µM | [9] > 100 µM | [10] > 100 µM | [11] > 100 µM | [12] > 100 µM | [13] > 100 µM | [14] > 100 µM | [16] > 100 µM | [20] > 100 µM | [17] > 100 µM | [18] > 100 µM | [19] > 100 µM

COC(=O)C1=C(C)N2CCOC2(C)C(C(=O)OC)C1c1ccc[nH]1 (centres undefined)
inactive: [1] > 100 µM | [2] > 100 µM | [3] > 100 µM | [4] > 100 µM | [5] > 100 µM | [6] > 100 µM | [7] > 100 µM | [8] > 100 µM | [10] > 100 µM | [11] > 100 µM | [13] > 100 µM | [14] > 100 µM | [15] > 100 µM | [16] > 100 µM | [20] > 100 µM | [18] > 100 µM | [19] > 100 µM

NC(CCCCCCCCCCP(=O)(O)O)C(=O)O (centres undefined)
inactive: [1] > 100 µM | [2] > 100 µM | [3] > 100 µM | [4] > 100 µM | [6] > 100 µM | [7] > 100 µM | [8] > 100 µM | [10] > 100 µM | [11] > 100 µM | [12] > 100 µM | [13] > 100 µM | [14] > 100 µM | [15] > 100 µM | [16] > 100 µM | [20] > 100 µM | [17] > 100 µM | [18] > 100 µM | [19] > 100 µM

Cc1ccc2oc3c(ccc(=O)n3C)c(=O)c2c1
inactive: [1] > 100 µM | [2] > 100 µM | [3] > 100 µM | [4] > 100 µM | [5] > 100 µM | [6] > 100 µM | [7] > 100 µM | [8] > 100 µM | [9] > 100 µM | [10] > 100 µM | [11] > 100 µM | [12] > 100 µM | [13] > 100 µM | [15] > 100 µM | [16] > 100 µM | [20] > 100 µM | [17] > 100 µM | [18] > 100 µM | [19] > 100 µM

Cc1ccc(S(=O)(=O)N(CC(=O)O)c2ccccc2)cc1
inactive: [1] > 100 µM | [2] > 100 µM | [3] > 100 µM | [4] > 100 µM | [6] > 100 µM | [7] > 100 µM | [8] > 100 µM | [9] > 100 µM | [10] > 100 µM | [11] > 100 µM | [12] > 100 µM | [13] > 100 µM | [14] > 100 µM | [15] > 100 µM | [16] > 100 µM | [20] > 100 µM | [17] > 100 µM | [18] > 100 µM | [19] > 100 µM

Cc1cc(C)cc(Sc2c([N+](=O)[O-])ncn2C)c1
inactive: [1] 26.6 µM | [2] 15.6 µM | [3] 25 µM | [5] > 100 µM | [6] 17.2 µM | [7] 16.2 µM | [8] 14 µM | [9] 7.28 µM | [10] 14.8 µM | [11] 13 µM | [12] 16.9 µM | [13] 12.8 µM | [14] 9.98 µM | [15] 6.03 µM | [16] 10.6 µM | [20] 25.7 µM | [17] 14.6 µM | [18] 15.5 µM | [19] 13.7 µM
